IC50 and inhibition data for 33 compounds are collected here from patent publication US11186564B2, “Dual NAV1.2/5HT2a inhibitors for treating CNS disorders” (Sunovion Pharmaceuticals Inc., priority 2016, dated 2021).

The target of test [1] is T1, recombinant human serotonin receptor 5-HT2A (Homo sapiens, UniProt P28223).
T1 construct: expressed in transfected cells; method B: loaded with Ca2+ dye
The test is described as follows: 5-HT2A antagonist Ca2+ assay in CHO-K1 cells (method A aequorin luminescence / method B FLIPR fluorescence). In kind it is cell-based. As to conditions: antagonist mode vs EC80 of reference agonist, method A or B, read-out: 5HT2A IC50. In a few lines: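 Method A: CHO-K1 cells co-expressing human 5-HT2A and mitochondrial apoaequorin were given reference agonist at EC80 15 min after compound, with luminescence read. Method B: dye-loaded 5-HT2A CHO-K1 cells were pretreated with compound, then given serotonin at EC80, with FLIPR fluorescence read. IC50s came from nonlinear fits of percent inhibition.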

For test [2], the target named is human sodium channel NaV1.2 (Homo sapiens, UniProt Q99250). The test is described as follows: NaV1.2 inhibition, automated patch-clamp (Q-Patch HTX), slow inactivated state (state C). Type of test: cell-based. The note with it: hNaV1.2 CHO cells, slow inactivated state; for IC50: read-out: NaV1.2 IC50; for inhibition at 1 µM: 1 μM compound, read-out: NaV1.2 (% inh), 1 μM; for inhibition at 10 µM: 10 μM compound, read-out: NaV1.2 (% inh), 10 μM. In outline:
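CHO K-1 cells stably expressing human NaV1.2, whole-cell automated patch clamp, holding −100 mV; slow-inactivated state (state C) read at a 5 ms step to 0 mV after 10 s at −50 mV and 15 ms at −90 mV. Percent inhibition vs vehicle; IC50 by nonlinear least-squares fit.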

SMILES strings stand for the structures. A value given as a limit tells only on which side of the number the result lay.

T1 sequence (P28223 whole entry): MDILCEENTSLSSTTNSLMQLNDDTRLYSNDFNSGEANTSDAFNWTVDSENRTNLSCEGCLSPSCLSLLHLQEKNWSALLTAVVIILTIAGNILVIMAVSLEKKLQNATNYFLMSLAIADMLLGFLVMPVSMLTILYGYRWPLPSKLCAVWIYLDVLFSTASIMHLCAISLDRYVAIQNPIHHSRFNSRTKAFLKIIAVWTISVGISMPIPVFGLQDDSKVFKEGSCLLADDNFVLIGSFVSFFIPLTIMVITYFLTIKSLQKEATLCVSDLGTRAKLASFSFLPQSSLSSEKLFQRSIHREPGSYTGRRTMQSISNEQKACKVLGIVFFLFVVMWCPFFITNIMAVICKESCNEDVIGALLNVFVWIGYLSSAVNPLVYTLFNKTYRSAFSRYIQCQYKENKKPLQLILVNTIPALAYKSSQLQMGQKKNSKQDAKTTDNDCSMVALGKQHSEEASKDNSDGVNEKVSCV
Sequence of human sodium channel NaV1.2 (Q99250 whole entry): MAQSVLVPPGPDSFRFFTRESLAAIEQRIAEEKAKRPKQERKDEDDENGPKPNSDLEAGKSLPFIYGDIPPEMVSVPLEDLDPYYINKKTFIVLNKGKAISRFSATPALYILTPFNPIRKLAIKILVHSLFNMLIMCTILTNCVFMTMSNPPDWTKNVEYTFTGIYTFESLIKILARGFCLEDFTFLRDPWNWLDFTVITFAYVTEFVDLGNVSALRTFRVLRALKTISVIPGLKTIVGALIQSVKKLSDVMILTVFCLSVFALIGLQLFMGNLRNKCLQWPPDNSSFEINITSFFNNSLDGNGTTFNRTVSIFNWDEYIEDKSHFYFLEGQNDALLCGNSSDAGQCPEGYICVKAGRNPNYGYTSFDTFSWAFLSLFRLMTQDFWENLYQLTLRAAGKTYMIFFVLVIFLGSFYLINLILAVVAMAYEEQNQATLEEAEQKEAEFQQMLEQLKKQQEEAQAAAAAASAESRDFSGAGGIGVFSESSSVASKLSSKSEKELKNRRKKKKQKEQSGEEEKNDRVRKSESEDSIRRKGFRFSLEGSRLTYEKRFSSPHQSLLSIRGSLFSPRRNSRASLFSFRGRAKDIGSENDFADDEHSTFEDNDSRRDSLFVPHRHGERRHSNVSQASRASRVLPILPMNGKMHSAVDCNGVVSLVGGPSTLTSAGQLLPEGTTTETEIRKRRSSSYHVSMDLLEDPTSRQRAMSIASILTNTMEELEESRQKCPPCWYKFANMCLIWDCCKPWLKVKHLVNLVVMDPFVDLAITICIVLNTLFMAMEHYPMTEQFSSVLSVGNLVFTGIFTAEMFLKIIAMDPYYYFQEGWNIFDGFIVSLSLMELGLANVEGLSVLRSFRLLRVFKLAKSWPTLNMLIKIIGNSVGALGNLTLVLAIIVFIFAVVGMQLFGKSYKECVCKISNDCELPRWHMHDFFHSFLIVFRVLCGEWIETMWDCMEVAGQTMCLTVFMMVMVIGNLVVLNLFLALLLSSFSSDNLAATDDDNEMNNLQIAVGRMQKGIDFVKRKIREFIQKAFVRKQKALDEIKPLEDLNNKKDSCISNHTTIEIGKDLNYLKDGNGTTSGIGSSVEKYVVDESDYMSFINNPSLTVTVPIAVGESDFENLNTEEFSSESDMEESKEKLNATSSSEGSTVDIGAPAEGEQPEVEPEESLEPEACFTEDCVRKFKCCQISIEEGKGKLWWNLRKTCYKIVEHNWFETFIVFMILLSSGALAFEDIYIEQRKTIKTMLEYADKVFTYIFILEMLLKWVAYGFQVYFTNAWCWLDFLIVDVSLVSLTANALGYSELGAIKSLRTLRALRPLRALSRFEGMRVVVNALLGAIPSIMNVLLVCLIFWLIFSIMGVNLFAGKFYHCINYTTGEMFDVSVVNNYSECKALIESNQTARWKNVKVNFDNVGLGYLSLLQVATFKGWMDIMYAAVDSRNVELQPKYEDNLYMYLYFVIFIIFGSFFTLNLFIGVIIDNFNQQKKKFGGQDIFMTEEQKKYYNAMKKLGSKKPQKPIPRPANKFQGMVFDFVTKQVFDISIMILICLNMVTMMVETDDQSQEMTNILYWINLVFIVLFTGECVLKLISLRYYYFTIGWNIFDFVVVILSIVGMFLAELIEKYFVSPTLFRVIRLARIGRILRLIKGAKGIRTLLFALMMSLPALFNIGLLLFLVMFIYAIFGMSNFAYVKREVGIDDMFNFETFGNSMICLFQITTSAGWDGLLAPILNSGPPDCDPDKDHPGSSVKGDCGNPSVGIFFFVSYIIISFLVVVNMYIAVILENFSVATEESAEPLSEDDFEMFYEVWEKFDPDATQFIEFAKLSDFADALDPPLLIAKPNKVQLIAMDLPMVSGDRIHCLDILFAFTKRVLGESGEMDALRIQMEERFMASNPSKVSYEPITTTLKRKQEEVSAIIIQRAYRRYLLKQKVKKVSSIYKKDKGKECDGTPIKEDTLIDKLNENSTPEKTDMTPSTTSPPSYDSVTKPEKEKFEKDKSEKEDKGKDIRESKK

Turning to `O[C@@H](CO[C@@H]1CCCc2ccccc21)CN1CC[C@@H](Oc2ccc(F)cc2)C1` [Example 53, (R)-1-((R)-3-(4-fluorophenoxy)pyrrolidin-1-yl)-3-(((R)-1,2,3,4-tetrahydronaphthalen-1-yl)oxy)propan-2-ol], the results for the half-maximal inhibitory concentration (IC50) in test [1] and in test [2] were 230 nM and 1930 nM, respectively.

As for `O=C1c2cccnc2CN1CCN1CCC(Oc2ccc(F)cc2)CC1` [Example 186, 6-(2-(4-(4-fluorophenoxy)piperidin-1-yl)ethyl)-6,7-dihydro-5H-pyrrolo[3,4-b]pyridin-5-one], in test [1], the half-maximal inhibitory concentration (IC50) (commonly the concentration that inhibits the measured activity by half) was determined as 10 nM. Moreover, the inhibition at 1 µM in test [2] was -3%.

For `COc1ccccc1OC1COC2(C1)CN(CC1CCc3ccccc31)C2` (stereo not drawn) [Example 363, 2-((2,3-dihydro-1H-inden-1-yl)methyl)-7-(2-methoxyphenoxy)-5-oxa-2-azaspiro[3.4]octane], the IC50 in test [1] worked out at 620 nM. Also, the inhibition at 1 µM in test [2] was 48%.

In the case of `OC(CO[C@@H]1CCc2ccccc21)CN1CCC(Oc2ccc(F)cc2)CC1` (stereo partly drawn) [Example 236, 1-(((R)-2,3-dihydro-1H-inden-1-yl)oxy)-3-(4-(4-fluorophenoxy)piperidin-1-yl)propan-2-ol], the values for the IC50 in test [1] and in test [2] were 350 nM and 550 nM, respectively.

Consider `OC(COC1CCCCC1)CN1C[C@@H]2C[C@H](C1)N(c1ccccc1)C2` (stereo partly drawn) [Example 331, 1-(cyclohexyloxy)-3-((1S,5R)-6-phenyl-3,6-diazabicyclo[3.2.1]octan-3-yl)propan-2-ol], for which the concentration for half-maximal inhibition (IC50) in test [1] was found to be 1640 nM; in test [2], 310 nM.

Turning to `Cc1ccc(N2CCN(C[C@@H](O)COC3CCCCC3)CC2)cc1` [Example 78, (R)-1-(cyclohexyloxy)-3-(4-(p-tolyl)piperazin-1-yl)propan-2-ol], the figures for the IC50 in test [1] and in test [2] were greater than 10000 nM and 4660 nM, respectively.

On to `C[C@@H]1C[C@@]2(CCc3ccccc3O2)CCN1CCN1CCc2ccccc2C1=O` [Example 426, 2-(2-((2R,2′R)-2′-methylspiro[chromane-2,4′-piperidin]-1′-yl)ethyl)-3,4-dihydroisoquinolin-1(2H)-one], for which the IC50 in test [1] amounted to 160 nM. In addition, the inhibition at 1 µM in test [2] was 41%.

As to `c1ccc2c(c1)CCC2CN1CCC2(CCc3ccncc3O2)CC1` (stereo not drawn) [Example 405, 1-((2,3-dihydro-1H-inden-1-yl)methyl)-3′,4′-dihydrospiro[piperidine-4,2′-pyrano[2,3-c]pyridine]], the IC50 in test [1] worked out at 180 nM. The inhibition at 1 µM in test [2] came to 18%.

Take `Clc1cccc(N2CCN(CCc3ccccc3)CC2)c1` [Example 64, 1-(3-chlorophenyl)-4-phenethylpiperazine]: the 50% inhibitory concentration (IC50) in test [1] came to 40 nM. For the same compound, the inhibition at 10 µM in test [2] is 93%.

With `COc1ccc2c(c1)CCCN(CCN1CCC(Oc3ccc(F)cc3)CC1)C2=O` [Example 212, 2-(2-(4-(4-fluorophenoxy)piperidin-1-yl)ethyl)-7-methoxy-2,3,4,5-tetrahydro-1H-benzo[c]azepin-1-one], the IC50 in test [1] was determined as 10 nM. In addition, in test [2], the inhibition at 10 µM came out at 48%.

As for `Fc1ccc(COC2CCN(CC3CCOc4ccccc43)CC2)cc1` (stereo not drawn) [Example 249, 1-(chroman-4-ylmethyl)-4-((4-fluorobenzyl)oxy)piperidine], the IC50 stood at 210 nM in test [1] and 630 nM in test [2].

With `COc1ccc2c(c1)C(CN1CCC3(CCc4ccccc4O3)CC1)CC2` (stereo not drawn) [Example 402, 1′-((6-methoxy-2,3-dihydro-1H-inden-1-yl)methyl)spiro[chromane-2,4′-piperidine]], the values for the half-maximal inhibitory concentration (IC50) in test [1] and in test [2] were 1070 nM and 70 nM, respectively.

In the case of `O=C1c2ccc(Br)cc2CCCN1CCN1CCC(Oc2ccc(F)cc2)CC1` [Example 213, 7-bromo-2-(2-(4-(4-fluorophenoxy)piperidin-1-yl)ethyl)-2,3,4,5-tetrahydro-1H-benzo[c]azepin-1-one], the IC50 in test [1] was 80 nM; in test [2], 180 nM.

In the case of `Fc1ccc(OC2CCN(CCC3COc4cccnc43)CC2)cc1` (stereo not drawn) [Example 177, 3-(2-(4-(4-fluorophenoxy)piperidin-1-yl)ethyl)-2,3-dihydrofuro[3,2-b] pyridine], in test [1], the IC50 amounted to 10 nM. Further, in test [2], the inhibition at 1 µM is 34%.

On to `OC(CO[C@@H]1CCc2ccccc21)CN1CC[C@@H](Oc2cccc(F)c2)C1` (stereo partly drawn) [Example 36, 1-(((R)-2,3-dihydro-1H-inden-1-yl)oxy)-3-((R)-3-(3-fluorophenoxy)pyrrolidin-1-yl)propan-2-ol], for which the IC50 was found to be 1760 nM in test [1] and 250 nM in test [2].

Turning to `c1ccc2c(c1)CC(CN1CCC3(CCc4ccccc4O3)CC1)C2` [Example 410, 1′-((2,3-dihydro-1H-inden-2-yl)methyl)spiro[chromane-2,4′-piperidine]], the IC50 is 100 nM in test [1] and 480 nM in test [2].

As to `O=C1c2ccccc2CCN1CCCN1CCC(Oc2ccc(F)cc2)CC1` [Example 222, 2-(3-(4-(4-fluorophenoxy)piperidin-1-yl)propyl)-3,4-dihydroisoquinolin-1(2H)-one], the IC50 in test [1] amounted to 60 nM; in test [2] it was 1300 nM.

In the case of `O=C1c2ccccc2CCN1CCN1C[C@@H]2C[C@H]1CN2c1ccccc1` [Example 304, 2-(2-((1S,4S)-5-phenyl-2,5-diazabicyclo[2.2.1]heptan-2-yl)ethyl)-3,4-dihydroisoquinolin-1(2H)-one], the 50% inhibitory concentration (IC50) in test [1] turned out to be 7050 nM. Moreover, the inhibition at 1 µM in test [2] amounted to 4%.

`O=C1c2cc(Cl)ccc2CN1CCN1CCC(Oc2ccc(F)cc2)CC1` [Example 189, 6-chloro-2-(2-(4-(4-fluorophenoxy)piperidin-1-yl)ethyl)isoindolin-1-one]: the IC50 in test [1] worked out at 180 nM. In addition, the inhibition at 1 µM in test [2] turned out to be 0%.

Regarding `Fc1ccc(OC2CCN(CCC3CCCCO3)CC2)cc1` (stereo not drawn) [Example 168, 4-(4-fluorophenoxy)-1-(2-(tetrahydro-2H-pyran-2-yl)ethyl)piperidine], the IC50 in test [1] came out at 130 nM. Also, in test [2], the inhibition at 1 µM came out at 2%.

With `c1ccc2c(c1)CCC1(CCN(CC3Cc4cccnc4C3)CC1)O2` (stereo not drawn) [Example 411, 1′-((6,7-dihydro-5H-cyclopenta[b]pyridin-6-yl)methyl)spiro[chromane-2,4′-piperidine]], the IC50 in test [1] amounted to 1200 nM. In test [2], the inhibition at 1 µM was determined as 37%.

On to `COc1ccc2c(c1)C(CN1CC[C@H](Oc3ccccc3OC)C[C@@H]1C)CC2` (stereo partly drawn) [Example 104, (2S,4S)-1-((6-methoxy-2,3-dihydro-1H-inden-1-yl)methyl)-4-(2-methoxyphenoxy)-2-methylpiperidine], for which, in test [1], the IC50 was found to be 260 nM. In addition, the inhibition at 1 µM in test [2] was 46%.

Turning to `O=C1CC2(CCN(CC3CCc4ccccc43)C2)Oc2ccccc21` (stereo not drawn) [Example 388, 1′-((2,3-dihydro-1H-inden-1-yl)methyl)spiro[chromane-2,3′-pyrrolidin]-4-one], the IC50 in test [1] worked out at 220 nM; in test [2], 1750 nM.

On to `COc1ccc2c(c1)C(CN1CCC(NS(=O)(=O)c3ccc(F)cc3)CC1)CC2` (stereo not drawn) [Example 250, 4-fluoro-N-(1-((6-methoxy-2,3-dihydro-1H-inden-1-yl)methyl)piperidin-4-yl)benzenesulfonamide], for which the values for the IC50 in test [1] and in test [2] were 70 nM and 200 nM, respectively.

In the case of `O=C1CCc2ccccc2N1CCN1CCC(Oc2ccc(F)cc2)CC1` [Example 190, 1-(2-(4-(4-fluorophenoxy)piperidin-1-yl)ethyl)-3,4-dihydroquinolin-2(1H)-one], the IC50 in test [1] is 10 nM. Also, in test [2], the inhibition at 1 µM came to 25%.

With `c1ccc2c(c1)CCC1(CN(CC3CCc4ccccc43)C1)O2` (stereo not drawn) [Example 385, 1-((2,3-dihydro-1H-inden-1-yl)methyl)spiro[azetidine-3,2′-chromane]], the IC50 in test [1] is 540 nM. Besides, the inhibition at 1 µM in test [2] was found to be 16%.

As to `Fc1ccc(OC2CCN(CCC3COc4ccccc43)CC2)cc1` (stereo not drawn) [Example 176, 1-(2-(2,3-dihydrobenzofuran-3-yl)ethyl)-4-(4-fluorophenoxy)piperidine], the IC50 in test [1] came out at 80 nM. The inhibition at 1 µM in test [2] was 41%.

Consider `Fc1ccc(OC2CCN(CC3CCc4cccc(F)c43)CC2)cc1` (stereo not drawn) [Example 119, 1-((7-fluoro-2,3-dihydro-1H-inden-1-yl)methyl)-4-(4-fluorophenoxy)piperidine], for which the IC50 came out at 20 nM in test [1] and 180 nM in test [2].

Take `OC(COc1ccccc1)CN1CCN(c2cccc(Cl)c2)CC1` (stereo not drawn) [Example 89, 1-(4-(3-chlorophenyl)piperazin-1-yl)-3-phenoxypropan-2-ol]: the IC50 in test [1] is 70 nM; in test [2], 440 nM.

With `CO[C@@H](CCN1CCC(Oc2ccccc2)CC1)c1ccccc1` [Example 230, (S)-1-(3-methoxy-3-phenylpropyl)-4-phenoxypiperidine], in test [1], the IC50 was determined as 390 nM. For the same compound, the inhibition at 10 µM in test [2] is 87%.

Consider `COc1cccc(OC2CCN(CCN3CCc4ccccc4C3=O)CC2)c1` [Example 195, 2-(2-(4-(3-methoxyphenoxy)piperidin-1-yl)ethyl)-3,4-dihydroisoquinolin-1(2H)-one], for which the IC50 is 260 nM in test [1] and 1500 nM in test [2].

On to `CC(C1CCc2ccccc21)N1CCC(Oc2ccc(F)cc2)CC1` (stereo not drawn) [Example 123, 1-(1-(2,3-dihydro-1H-inden-1-yl)ethyl)-4-(4-fluorophenoxy)piperidine], for which the IC50 in test [1] was 440 nM. Moreover, the inhibition at 1 µM in test [2] amounted to 71%.

Regarding `O[C@@H](CO[C@H]1CCc2ccccc21)CN1CCC(Oc2ccc(F)cc2)CC1` [Example 238, (R)-1-(((S)-2,3-dihydro-1H-inden-1-yl)oxy)-3-(4-(4-fluorophenoxy)piperidin-1-yl)propan-2-ol], the IC50 in test [1] stood at 240 nM. Further, the inhibition at 1 µM in test [2] was found to be 47%.
